“Also recorded” adds a separate entry of the source. Where two headings read alike, the source gives them in different places.
Experiments:
[1] = test system: ILM model substrate (silk granules); conditions: for Ratio λmax with MS and reference 632-635 nm: 632 nm (7a), 634 nm (7b, 7d), 635 nm (7c); for binding to the model substrate (in words): UV/vis, before and after treatment with model substrate
Method: To examine the binding of various dyes to the ILM model substrate, UV/vis measurements of the dyes Brilliant Blue G (BBG), compounds 7a-d, and Indocyanine green (ICG) were performed at various concentrations both before and after treatment with the model substrate. The aim of these measurements is to compare the binding strength of the individual dyes.
Stock solutions of the dyes with a concentration of 5 mg/mL were prepared using phosphate-buffered saline (PBS) at physiological pH 7.4.
To ensure measurement is as accurate as possible, the dye-model substrate solutions and the references were not prepared separately, but likewise used as stock solutions.
Subsequently, 6 mg of ILM model substrate plus 6 mL of dye solution and a reference solution comprising only 6 mL of dye solution were stirred for exactly 10 minutes and then centrifuged together for 8 minutes at 6000 rpm. The solutions were photographed and the carefully decanted supernatants analyzed by UV/vis spectroscopy. The ratios of the absorption maxima λmax with the model substrate to the absorption maximum λmax of the reference were calculated. This allowed the binding strengths of the individual dyes to be compared.

[2] = Solubility / precipitation of dye in phosphate-buffered saline; assay type: physicochemical; conditions: PBS
Text: Indocyanine green is one of the most important dyes in chromovitrectomy, particularly in the field of ILM peeling. The dye does, however, give rise to some problems and also to handling difficulties. Although it has long since been used for staining the inner limiting membrane and epiretinal membranes, studies have shown the dye to have numerous disadvantages.

Row | Ratio λmax with MS and reference 588 nm ([1]; 0.005 mg/mL in PBS pH 7.4) | Ratio λmax with MS and reference 632-635 nm ([1]; 0.005 mg/mL in PBS pH 7.4) | Ratio λmax with MS and reference 588 nm ([1]; 0.01 mg/mL in PBS pH 7.4) | Ratio λmax with MS and reference 632-635 nm ([1]; 0.01 mg/mL in PBS pH 7.4) | Ratio λmax with MS and reference 588 nm ([1]; 0.02 mg/mL in PBS pH 7.4) | Ratio λmax with MS and reference 632-635 nm ([1]; 0.02 mg/mL in PBS pH 7.4) | Ratio λmax with MS and reference 588 nm ([1]; 0.04 mg/mL in PBS pH 7.4) | Ratio λmax with MS and reference 632-635 nm ([1]; 0.04 mg/mL in PBS pH 7.4) | Ratio λmax with MS and reference 588 nm ([1]; 0.08 mg/mL in PBS pH 7.4) | Ratio λmax with MS and reference 632-635 nm ([1]; 0.08 mg/mL in PBS pH 7.4) | Ratio λmax with MS and reference 588 nm ([1]; 0.16 mg/mL in PBS pH 7.4) | Ratio λmax with MS and reference 632-635 nm ([1]; 0.16 mg/mL in PBS pH 7.4) | SMILES | binding to the model substrate (in words) [1] | further results
1 | 48% | 37% | 21% | 17% | 7% | 7% | 4% | 5% | 8% | 10% | 13% | 17% | CCCCCCCCCC[N+](C)(C)CCCNc1ccc(NCCC[N+](C)(C)CCCCCCCCCC)c2c1C(=O)c1ccccc1C2=O [7c, N,N′=(((9,10-dioxo-9,10-dihydroanthracene-1,4-diyl)bis(azanediyl))bis(propane-3,1-diyl))bis(N,N-dimethyldecan-1-aminium) Bromide] |  | 
2 |  |  |  |  |  |  |  |  |  |  |  |  | CCOc1ccc(Nc2ccc(/C(=C3C=C/C(=[N+](/CC)Cc4cccc(S(=O)(=O)[O-])c4)C=C/3C)c3ccc(N(CC)Cc4cccc(S(=O)(=O)[O-])c4)cc3C)cc2)cc1.[Na+] [BBG, Brilliant Blue G, reference compound] | good binding | binding of the dye ([1]; 0.005 mg/mL in PBS pH 7.4): 76%; Ratio λmax with MS and reference ([1]; 0.005 mg/mL in PBS pH 7.4, maximum about 585 nm): 24%; Ratio λmax with MS and reference ([1]; 0.01 mg/mL in PBS pH 7.4, maximum about 585 nm): 32%; Ratio λmax with MS and reference ([1]; 0.02 mg/mL in PBS pH 7.4, maximum about 585 nm): 44%; Ratio λmax with MS and reference ([1]; 0.04 mg/mL in PBS pH 7.4, maximum about 585 nm): 48%; binding of the dye ([1]; 0.08 mg/mL in PBS pH 7.4): 48%; Ratio λmax with MS and reference ([1]; 0.08 mg/mL in PBS pH 7.4, maximum about 585 nm): 62%
3 | 12% | 13% | 7% | 8% | 3% | 4% | 3% | 3% | 1% | 2% | 18% | 18% | CCCCCCCCCCCC[N+](C)(C)CCCNc1ccc(NCCC[N+](C)(C)CCCCCCCCCCCC)c2c1C(=O)c1ccccc1C2=O [7d, N,N′(((9,10-dioxo-9,10-dihydroanthracene-1,4-diyl)bis(azanediyl))bis(propane-3,1-diyl))bis(N,N-dimethyldodecan-1-aminium) Bromide] |  | 
4 |  |  |  |  |  |  |  |  |  |  |  |  | CC1(C)C(/C=C/C=C/C=C/C=C2\N(CCCCS(=O)(=O)O)c3ccc4ccccc4c3C2(C)C)=[N+](CCCCS(=O)(=O)[O-])c2ccc3ccccc3c21 [ICG, Indocyanine green, reference compound] | positive binding | solubility in saline solutions / phosphate-buffered saline [2]: poor solubility; also recorded: causes the compound to precipitate; Ratio λmax with MS and reference ([1]; 0.005 mg/mL in double-distilled water, 779/780 nm): 47%; Ratio λmax with MS and reference ([1]; 0.01 mg/mL in double-distilled water, 779/780 nm): 95%; Ratio λmax with MS and reference ([1]; 0.02 mg/mL in double-distilled water, 779/780 nm): 42%; Ratio λmax with MS and reference ([1]; 0.04 mg/mL in double-distilled water, 779/780 nm): 85%
5 | 11% | 9% | 10% | 8% | 6% | 6% | 8% | 8% | 18% | 19% | 32% | 34% | CCCCCCCC[N+](C)(C)CCCNc1ccc(NCCC[N+](C)(C)CCCCCCCC)c2c1C(=O)c1ccccc1C2=O [7b, N,N′-(((9,10-dioxo-9,10-dihydroanthracene-1,4-diyl)bis(azanediyl))bis(propane-3,1-diyl))bis(N,N-dimethyloctan-1-aminium) bromide] |  | 
6 | 54% | 54% | 52% | 52% | 54% | 55% | 57% | 58% | 67% | 69% | 76% | 78% | CCCC[N+](C)(C)CCCNc1ccc(NCCC[N+](C)(C)CCCC)c2c1C(=O)c1ccccc1C2=O [7a, N,N′=(((9,10-dioxo-9,10-dihydroanthracene-1,4-diyl)bis(azanediyl))bis(propane-3,1-diy1))bis(N,N-dimethylbutan-1-aminium) bromide] |  | 

From US20230181768A1, “TISSUE-TARGETING COMPLEX” (PHARMPUR GMBH, priority 2017, published 2023)
